Residues, ends and D or L forms follow the SMILES beside them.
assay: Ratio of orexin-1 receptor to orexin-2 receptor in human

Going from CC[C@H](C)[C@H](NC(=O)CNC(=O)[C@H](C)NC(=O)[C@H](C)NC(=O)[C@H](Cc1c[nH]cn1)NC(=O)[C@H](CC(N)=O)NC(=O)CNC(=O)[C@H](CO)NC(=O)[C@H](C)NC(=O)[C@H](CCC(N)=O)NC(=O)[C@H](CC(C)C)NC(=O)[C@H](CC(C)C)NC(=O)[C@H](CCCN=C(N)N)NC(=O)[C@H](CCC(N)=O)NC(=O)[C@H](CC(C)C)NC(=O)[C@H](CCCN=C(N)N)NC(=O)CNC(=O)[C@H](CCC(N)=O)NC(=O)[C@H](CC(C)C)NC(=O)[C@H](C)N)C(=O)N[C@@H](CC(C)C)C(=O)N[C@H](C(=O)N[C@@H](CCSC)C(=O)O)[C@@H](C)O (H-ALQGRLQRLLQASGNHAAGILTM-OH) to CC[C@H](C)[C@H](NC(=O)CNC(=O)[C@H](C)NC(=O)[C@H](C)NC(=O)[C@H](Cc1c[nH]cn1)NC(=O)[C@H](CC(N)=O)NC(=O)CNC(=O)[C@H](CO)NC(=O)[C@H](C)NC(=O)[C@H](CCC(N)=O)NC(=O)[C@H](C)NC(=O)[C@H](CC(C)C)NC(=O)[C@H](CCCN=C(N)N)NC(=O)[C@H](CCC(N)=O)NC(=O)[C@H](CC(C)C)NC(=O)[C@H](CCCN=C(N)N)NC(=O)CNC(=O)[C@H](CCC(N)=O)NC(=O)[C@H](CC(C)C)NC(=O)CN)C(=O)N[C@@H](CC(C)C)C(=O)N[C@H](C(=O)N[C@@H](CCSC)C(=O)O)[C@@H](C)O (H-GLQGRLQRLAQASGNHAAGILTM-OH), the Ratio rises from 5.5 to over 430.

First: CC[C@H](C)[C@H](NC(=O)CNC(=O)[C@H](C)NC(=O)[C@H](C)NC(=O)[C@H](Cc1c[nH]cn1)NC(=O)[C@H](CC(N)=O)NC(=O)CNC(=O)[C@H](CO)NC(=O)[C@H](C)NC(=O)[C@H](CCC(N)=O)NC(=O)[C@H](CC(C)C)NC(=O)[C@H](CC(C)C)NC(=O)[C@H](CCCN=C(N)N)NC(=O)[C@H](CCC(N)=O)NC(=O)[C@H](CC(C)C)NC(=O)[C@H](CCCN=C(N)N)NC(=O)CNC(=O)[C@H](C)NC(=O)[C@H](CC(C)C)NC(=O)CN)C(=O)N[C@@H](CC(C)C)C(=O)N[C@H](C(=O)N[C@@H](CCSC)C(=O)O)[C@@H](C)O (H-GLAGRLQRLLQASGNHAAGILTM-OH)
Second: CC[C@H](C)[C@H](NC(=O)CNC(=O)[C@H](C)NC(=O)[C@H](C)NC(=O)[C@H](Cc1c[nH]cn1)NC(=O)[C@H](CC(N)=O)NC(=O)CNC(=O)[C@H](CO)NC(=O)[C@H](C)NC(=O)[C@H](C)NC(=O)[C@H](CC(C)C)NC(=O)[C@H](CC(C)C)NC(=O)[C@H](CCCN=C(N)N)NC(=O)[C@H](CCC(N)=O)NC(=O)[C@H](CC(C)C)NC(=O)[C@H](CCCN=C(N)N)NC(=O)CNC(=O)[C@H](CCC(N)=O)NC(=O)[C@H](CC(C)C)NC(=O)CN)C(=O)N[C@@H](CC(C)C)C(=O)N[C@H](C(=O)N[C@@H](CCSC)C(=O)O)[C@@H](C)O (H-GLQGRLQRLLAASGNHAAGILTM-OH)
The Ratio of the first is lower: 6.8 for the first, 8.6 for the second.

First: CC[C@H](C)[C@H](NC(=O)CNC(=O)[C@H](C)NC(=O)[C@H](C)NC(=O)[C@H](Cc1c[nH]cn1)NC(=O)[C@H](CC(N)=O)NC(=O)CNC(=O)[C@H](CO)NC(=O)[C@H](C)NC(=O)[C@H](CCC(N)=O)NC(=O)[C@H](CC(C)C)NC(=O)[C@H](CC(C)C)NC(=O)[C@H](CCCN=C(N)N)NC(=O)[C@H](CCC(N)=O)NC(=O)[C@H](CC(C)C)NC(=O)[C@H](CCCN=C(N)N)NC(=O)CNC(=O)[C@H](CCC(N)=O)NC(=O)[C@H](CC(C)C)NC(=O)CN)C(=O)N[C@@H](C)C(=O)N[C@H](C(=O)N[C@@H](CCSC)C(=O)O)[C@@H](C)O (H-GLQGRLQRLLQASGNHAAGIATM-OH)
Second: CC[C@H](C)[C@H](NC(=O)CNC(=O)[C@H](C)NC(=O)[C@H](C)NC(=O)[C@H](Cc1c[nH]cn1)NC(=O)[C@H](CC(N)=O)NC(=O)CNC(=O)[C@H](CO)NC(=O)[C@H](C)NC(=O)[C@H](CCC(N)=O)NC(=O)[C@H](CC(C)C)NC(=O)[C@H](CC(C)C)NC(=O)[C@H](CCCN=C(N)N)NC(=O)[C@H](CCC(N)=O)NC(=O)[C@H](CC(C)C)NC(=O)[C@H](CCCN=C(N)N)NC(=O)CNC(=O)[C@H](CCC(N)=O)NC(=O)[C@@H]1CCCN1C(=O)CN)C(=O)N[C@@H](CC(C)C)C(=O)N[C@H](C(=O)N[C@@H](CCSC)C(=O)O)[C@@H](C)O (H-GPQGRLQRLLQASGNHAAGILTM-OH)
The Ratio of the first is higher: over 65 for the first, 28.3 for the second.

CC[C@H](C)[C@H](NC(=O)CNC(=O)[C@H](C)NC(=O)[C@H](C)NC(=O)[C@H](Cc1c[nH]cn1)NC(=O)[C@H](CC(N)=O)NC(=O)CNC(=O)[C@H](CO)NC(=O)[C@H](C)NC(=O)[C@H](CCC(N)=O)NC(=O)[C@H](CC(C)C)NC(=O)[C@H](CC(C)C)NC(=O)[C@H](CCCN=C(N)N)NC(=O)[C@H](CCC(N)=O)NC(=O)[C@H](CC(C)C)NC(=O)[C@H](CCCN=C(N)N)NC(=O)CNC(=O)[C@H](CCC(N)=O)NC(=O)[C@H](CC(C)C)NC(=O)CN)C(=O)N[C@@H](CC(C)C)C(=O)N1CCC[C@H]1C(=O)N[C@@H](CCSC)C(=O)O (H-GLQGRLQRLLQASGNHAAGILPM-OH) and CC[C@H](C)[C@H](NC(=O)CNC(=O)[C@H](C)NC(=O)[C@@H]1CCCN1C(=O)[C@H](Cc1c[nH]cn1)NC(=O)[C@H](CC(N)=O)NC(=O)CNC(=O)[C@H](CO)NC(=O)[C@H](C)NC(=O)[C@H](CCC(N)=O)NC(=O)[C@H](CC(C)C)NC(=O)[C@H](CC(C)C)NC(=O)[C@H](CCCN=C(N)N)NC(=O)[C@H](CCC(N)=O)NC(=O)[C@H](CC(C)C)NC(=O)[C@H](CCCN=C(N)N)NC(=O)CNC(=O)[C@H](CCC(N)=O)NC(=O)[C@H](CC(C)C)NC(=O)CN)C(=O)N[C@@H](CC(C)C)C(=O)N[C@H](C(=O)N[C@@H](CCSC)C(=O)O)[C@@H](C)O (H-GLQGRLQRLLQASGNHPAGILTM-OH) cannot be ordered by Ratio: over 375 for the first, over 230 for the second.

Compared with CC[C@H](C)[C@H](NC(=O)CNC(=O)[C@@H]1CCCN1C(=O)[C@H](C)NC(=O)[C@H](Cc1c[nH]cn1)NC(=O)[C@H](CC(N)=O)NC(=O)CNC(=O)[C@H](CO)NC(=O)[C@H](C)NC(=O)[C@H](CCC(N)=O)NC(=O)[C@H](CC(C)C)NC(=O)[C@H](CC(C)C)NC(=O)[C@H](CCCN=C(N)N)NC(=O)[C@H](CCC(N)=O)NC(=O)[C@H](CC(C)C)NC(=O)[C@H](CCCN=C(N)N)NC(=O)CNC(=O)[C@H](CCC(N)=O)NC(=O)[C@H](CC(C)C)NC(=O)CN)C(=O)N[C@@H](CC(C)C)C(=O)N[C@H](C(=O)N[C@@H](CCSC)C(=O)O)[C@@H](C)O (H-GLQGRLQRLLQASGNHAPGILTM-OH), CC[C@H](C)[C@H](NC(=O)CNC(=O)[C@H](C)NC(=O)[C@H](C)NC(=O)[C@H](Cc1c[nH]cn1)NC(=O)[C@H](CC(N)=O)NC(=O)CNC(=O)[C@H](CO)NC(=O)[C@H](C)NC(=O)[C@H](CCC(N)=O)NC(=O)[C@H](CC(C)C)NC(=O)[C@H](CC(C)C)NC(=O)[C@H](CCCN=C(N)N)NC(=O)[C@H](CCC(N)=O)NC(=O)[C@H](CC(C)C)NC(=O)[C@H](CCCN=C(N)N)NC(=O)CNC(=O)[C@@H](N)CCC(N)=O)C(=O)N[C@@H](CC(C)C)C(=O)N[C@H](C(=O)N[C@@H](CCSC)C(=O)O)[C@@H](C)O (H-QGRLQRLLQASGNHAAGILTM-OH) is lower in Ratio: over 280 for the first, 18.2 for the second.

CC[C@H](C)[C@H](NC(=O)CNC(=O)[C@H](C)NC(=O)[C@H](C)NC(=O)[C@H](Cc1c[nH]cn1)NC(=O)[C@H](CC(N)=O)NC(=O)CNC(=O)[C@H](CO)NC(=O)[C@H](C)NC(=O)[C@H](CCC(N)=O)NC(=O)[C@H](CC(C)C)NC(=O)[C@H](CC(C)C)NC(=O)[C@H](CCCN=C(N)N)NC(=O)[C@H](CCC(N)=O)NC(=O)[C@H](CC(C)C)NC(=O)[C@@H](N)CCCN=C(N)N)C(=O)N[C@@H](CC(C)C)C(=O)N[C@H](C(=O)N[C@@H](CCSC)C(=O)O)[C@@H](C)O (H-RLQRLLQASGNHAAGILTM-OH) showed a Ratio of over 1750.
